Data taken from patent US8217032B2, “Selective estrogen receptor modulators for the treatment of vasomotor symptoms” (Eli Lilly and Company, priority 2004, dated 2012).

Experiments:
[1] = system: ovariectomized Sprague-Dawley rats; assay: Morphine withdrawal, rat hot flash model; type: in vivo; settings: LRL data
Source text: Morphine withdrawal, rat hot flash model: Simpkins et al. (1983) first published morphine withdrawal in the rat as a putative model for hot flashes, based on observations highlighting the similarity of symptoms of gonadal steroid withdrawal to those of opioid withdrawal. Although less severe, the signs and symptoms associated with clinical hot flashes, or estrogen deficiency, in the rat parallel those produced by naloxone-precipitated withdrawal in morphine dependent rats, including: 1) an increase in tail skin temperature, 2) a surge in luteinizing hormone and 3) an increase in heart rate. Each of these responses are associated with an increase in sympathetic outflow, which is a current mechanistic hypothesis for hot flashes. […] A key feature of animal models, is that they mimic the treatment efficacy observed with the human disease. The morphine withdrawal hot flash model, either in its originally described form, or with the modifications described herein, is responsive to agents typically used in the treatment of human hot flashes. This includes various forms of estrogen (Simpkins et al., 1983; LRL data), clonidine (LRL data), tibolone (LRL data), and medroxyprogesterone (LRL data). Furthermore, the model is sensitive to agents known to be associated with the induction of hot flashes in postmenopausal women.
A modification of the original procedure of Simpkins et al. (1983) is used which employs ovariectomized Sprague-Dawley rats. […]
On day 21 post-ovariectomy, animals are given […] (80 mg/kg; IM) 2-hours after final administration of the test compound. […] Temperature monitoring is initiated 30 minutes after administration of […] and is recorded every 15 seconds for a 1-hr period. […] A sharp rise in tail skin temperature typically occurs within 5 minutes post-naloxone injection, and two quantitative endpoints are made: 1) tail skin temperature at 15 min post-naloxone, and 2) area under the temperature response curve for the 45-min post-naloxone measurement period. […] Uteri are also removed at this time, and wet weight recorded.

[2] = Phase III clinical studies; cited from earlier work

Clc1cccc(Cl)c1N=C1NCCN1 [clonidine]
responsiveness of the morphine withdrawal hot flash model to agents typically used in the treatment of human hot flashes [1]: responsive

O=C(c1ccc(OCCN2CCCCC2)cc1)c1c(-c2ccc(O)cc2)sc2cc(O)ccc12 [raloxifene]
incidence of hot flash compared to placebo [2]: slight increased incidence of hot flash

C#C[C@]1(O)CC[C@H]2[C@@H]3[C@H](C)CC4=C(CCC(=O)C4)[C@H]3CC[C@@]21C [tibolone]
responsiveness of the morphine withdrawal hot flash model to agents typically used in the treatment of human hot flashes [1]: responsive

medroxyprogesterone
responsiveness of the morphine withdrawal hot flash model to agents typically used in the treatment of human hot flashes [1]: responsive
